SMILES strings stand for the structures.

Assay [1] has as its target human CB1 receptor (hCB1) (Homo sapiens, UniProt P21554). The assay is described as follows: cAMP assay (LANCE TR-FRET) in CHO-K1 cells stably expressing hCB1. The class given is cell-based. Here is the method: (§1) The ability of compounds to act as agonists or inverse agonists at human CB2 and CB1 receptors (hCB2, hCB1, respectively) and at the rat CB2 receptor (rCB2) was determined by measuring changes in intracellular cAMP levels. Chinese Hamster Ovary (CHO-K1) cell lines stably expressing hCB2 (Genebank: X74328) or hCB1 (Genebank: X54937) were purchased from Euroscreen (Gosselies, Belgium). The rat CB2 receptor was expressed from genomic DNA (provided by M. Abood, California Pacific Medical Center) in CHO-K1 cells from expression plasmid vector, pcDNA3.1.
(§2) Receptor mediated responses were determined by measuring changes in intracellular cAMP using LANCE cAMP detection kit (cat #AD0264, Perkin Elmer, Wellesley, Mass.) based on time-resolved fluorescence resonance energy transfer (TR-FRET).
(§3) On the day of the experiment, cells were spun at low speed for 5 min at room temperature. […] Cell clumps were removed by filtering through cell strainer 40 μm (BD Falcon, Discovery Labware, Bedford, Mass.) and diluted to 2×10^5 cells/mL. Antibody supplied with the LANCE cAMP immunoassay kit was then added according to the manufacturer's instructions. An aliquot of cells was taken for un-induced controls. […] Cells were then incubated for 30 min at room temperature prior to adding to Proxiplates containing test compounds (final DMSO concentration was less than 0.5%) with a Multidrop bulk dispenser, followed by a sixty minute incubation at room temperature. The response was stopped by addition of the detection mix supplied with the LANCE kit. The reagents were allowed to equilibrate for three hours prior to reading on an Envision multi-mode detector (Perkin-Elmer). TR-FRET was measured using a 330-380 nm excitation filter, a 665 nm emission filter, dichroic mirror 380 nm and Z=1 mm. Cyclic AMP concentrations in each well were back-calculated from a cAMP standard curve run concurrently during each assay. Each plate contained 16 wells of forskolin stimulated cells and 16 wells of forskolin plus CP55,940-treated cells. […] Concentrations of cAMP were expressed as a percent of the difference of these two groups of wells.
For orientation: cAMP levels reflect the balance of adenylyl cyclase and phosphodiesterase activity.

Assay [2] addresses T1, human CB2 receptor (hCB2) (Homo sapiens, UniProt P34972).
T1 construct: host or cells: CHO-K1
The assay is described as follows: cAMP assay (LANCE TR-FRET) in CHO-K1 cells stably expressing hCB2. The class given is cell-based. Here is the method: as §1, §2, §3

T1 sequence (P34972 whole entry): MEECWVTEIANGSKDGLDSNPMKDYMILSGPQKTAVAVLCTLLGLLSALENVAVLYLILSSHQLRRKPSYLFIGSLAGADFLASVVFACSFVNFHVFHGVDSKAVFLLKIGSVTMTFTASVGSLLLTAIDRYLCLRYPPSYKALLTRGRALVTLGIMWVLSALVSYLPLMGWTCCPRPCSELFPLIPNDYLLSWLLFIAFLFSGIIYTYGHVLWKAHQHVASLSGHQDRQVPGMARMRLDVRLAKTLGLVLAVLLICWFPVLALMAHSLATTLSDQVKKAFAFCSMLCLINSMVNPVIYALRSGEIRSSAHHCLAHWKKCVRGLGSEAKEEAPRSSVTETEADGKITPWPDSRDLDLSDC
Sequence of human CB1 receptor (hCB1) (P21554 whole entry): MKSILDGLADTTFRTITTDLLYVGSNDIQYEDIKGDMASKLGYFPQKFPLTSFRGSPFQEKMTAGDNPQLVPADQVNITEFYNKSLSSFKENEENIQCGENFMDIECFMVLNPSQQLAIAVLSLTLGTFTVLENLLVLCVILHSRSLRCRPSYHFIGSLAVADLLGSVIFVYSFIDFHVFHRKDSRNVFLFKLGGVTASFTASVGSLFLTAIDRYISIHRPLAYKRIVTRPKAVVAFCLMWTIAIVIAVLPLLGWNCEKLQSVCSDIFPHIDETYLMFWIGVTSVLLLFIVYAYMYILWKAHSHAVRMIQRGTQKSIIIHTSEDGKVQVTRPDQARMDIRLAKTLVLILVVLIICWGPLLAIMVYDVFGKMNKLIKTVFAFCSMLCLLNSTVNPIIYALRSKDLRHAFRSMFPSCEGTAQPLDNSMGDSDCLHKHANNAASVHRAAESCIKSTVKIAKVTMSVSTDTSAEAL

`O=C(N[C@H]1c2ccccc2C[C@H]1O)c1nc(-c2ccc(F)c(F)c2)n2c1CCCCC2` [Compound 1-18, 3-(3,4-difluorophenyl)-N-((1S,2R)-2-hydroxy-2,3-dihydro-1H-inden-1-yl)-6,7,8,9-tetrahydro-5H-imidazo[1,5-a]azepine-1-carboxamide]: the EC50 lay within 10 to 100 nM in assay [1] and 0.1 to 10 nM in assay [2]. For `CCN1Cc2c(C(=O)N[C@H](C(=O)NC)C(C)(C)C)nc(-c3ccc(F)c(F)c3)n2CC(C)C1` (mixture of isomers) [Compound 2-3, (S)-3-(3,4-difluorophenyl)-N-(3,3-dimethyl-1-(methylamino)-1-oxobutan-2-yl)-8-ethyl-6-methyl-6,7,8,9-tetrahydro-5H-imidazo[1,5-a][1,4]diazepine-1-carboxamide], in that order: 10 to 100 nM and 10 to 100 nM. Take `O=C(N[C@@H]1CCCc2ccccc21)c1nc(-c2ccc(F)c(F)c2)n2c1CCCCC2` [Compound 1-21, (R)-3-(3,4-difluorophenyl)-N-(1,2,3,4-tetrahydronaphthalen-1-yl)-6,7,8,9-tetrahydro-5H-imidazo[1,5-a]azepine-1-carboxamide]: in assay [2], the EC50 fell in the range of 0.1 to 10 nM. `O=C(N[C@H]1c2ccccc2C[C@@H]1O)c1nc(-c2ccc(F)c(F)c2)n2c1CCCCC2` [Compound 1-15, 3-(3,4-difluorophenyl)-N-((1S,2S)-2-hydroxy-2,3-dihydro-1H-inden-1-yl)-6,7,8,9-tetrahydro-5H-imidazo[1,5-a]azepine-1-carboxamide] displayed an EC50 in assay [2] of 0.1 to 10 nM. As to `CNC(=O)[C@@H](NC(=O)c1nc(-c2cc(F)ccc2F)n2c1COCCC2)C(C)(C)C` [Compound 1-12, (S)-3-(2,5-difluorophenyl)-N-(3,3-dimethyl-1-(methylamino)-1-oxobutan-2-yl)-5,6,7,9-tetrahydroimidazo[5,1-c][1,4]oxazepine-1-carboxamide], the EC50 in assay [1] and in assay [2] was 0.1 to 10 nM throughout. For the compound `COC(=O)[C@@H](NC(=O)c1nc(-c2ccccc2)n2c1CCCCC2)C(C)(C)C` [Compound 1-24, (S)-methyl 3,3-dimethyl-2-(3-phenyl-6,7,8,9-tetrahydro-5H-imidazo[1,5-a]azepine-1-carboxamido)butanoate], the EC50 in assay [1] and in assay [2] was 0.1 to 10 nM throughout. `CC(C)(C)[C@H](NC(=O)c1nc(-c2ccc(F)c(F)c2)n2c1COCCC2)C(=O)NCCO` [Compound 1-11, (S)-3-(3,4-difluorophenyl)-N-(1-(2-hydroxyethylamino)-3,3-dimethyl-1-oxobutan-2-yl)-5,6,7,9-tetrahydroimidazo[5,1-c][1,4]oxazepine-1-carboxamide] yielded an EC50 in assay [2] of 10 to 100 nM. The same measure, in the same setting: under `O=C(N[C@H]1CCCc2ccccc21)c1nc(-c2ccc(F)c(F)c2)n2c1CCCCC2` [Compound 1-20, (S)-3-(3,4-difluorophenyl)-N-(1,2,3,4-tetrahydronaphthalen-1-yl)-6,7,8,9-tetrahydro-5H-imidazo[1,5-a]azepine-1-carboxamide] stands 0.1 to 10 nM.

Compound `CNC(=O)[C@@H](NC(=O)c1nc(-c2ccc(F)c(F)c2)n2c1CN(C)C(C)CC2)C(C)(C)C` (single isomer, unassigned) [Compound 2-4] registered an EC50 in assay [2] of 10 to 100 nM. `CNC(=O)[C@@H](NC(=O)c1nc(-c2ccc(Cl)cc2F)n2c1COCCC2)C(C)(C)C` [Compound 1-13, (S)-3-(4-chloro-2-fluorophenyl)-N-(3,3-dimethyl-1-(methylamino)-1-oxobutan-2-yl)-5,6,7,9-tetrahydroimidazo[5,1-c][1,4]oxazepine-1-carboxamide]: the half-maximal effective concentration (EC50) in assay [1] and in assay [2] was 0.1 to 10 nM each time.

For `CNC(=O)[C@@H](NC(=O)c1nc(-c2ccc(F)c(F)c2)n2c1CN(C)CC(C)(C)C2)C(C)(C)C` [Compound 2-1, (S)-3-(3,4-difluorophenyl)-N-(3,3-dimethyl-1-(methylamino)-1-oxobutan-2-yl)-6,6,8-trimethyl-6,7,8,9-tetrahydro-5H-imidazo[1,5-a][1,4]diazepine-1-carboxamide], the 50% effective concentration (EC50) in assay [2] is 10 to 100 nM.

For `CNC(=O)[C@@H](NC(=O)c1nc(-c2ccc(F)c(F)c2)n2c1CCCC2)C(C)(C)C` [Compound 1-7, (S)-3-(3,4-difluorophenyl)-N-(3,3-dimethyl-1-(methyl-amino)-1-oxobutan-2-yl)-5,6,7,8-tetrahydroimidazo[1,5-a]pyridine-1-carboxamide], the EC50 in assay [1] and in assay [2] was 0.1 to 10 nM each time. With `O=C(N[C@@H]1c2ccccc2C[C@H]1O)c1nc(-c2ccc(F)c(F)c2)n2c1CCCCC2` [Compound 1-17, 3-(3,4-difluorophenyl)-N-((1R,2R)-2-hydroxy-2,3-dihydro-1H-inden-1-yl)-6,7,8,9-tetrahydro-5H-imidazo[1,5-a]azepine-1-carboxamide], the EC50 in assay [1] and in assay [2] was 10 to 100 nM each time. `O=C(NC1CCc2ccccc21)c1nc(-c2ccc(F)c(F)c2)n2c1CCCCC2` (centres unmarked) [Compound 1-19, 3-(3,4-difluorophenyl)-N-(2,3-dihydro-1H-inden-1-yl)-6,7,8,9-tetrahydro-5H-imidazo[1,5-a]azepine-1-carboxamide] came in with a concentration for a half-maximal effect (EC50) in assay [2] of 0.1 to 10 nM. For `CC(C)(C)[C@H](NC(=O)c1nc(-c2cc(F)ccc2F)n2c1CCCCC2)C(=O)N1CCC1` [Compound 1-5, (S)—N-(1-(azetidin-1-yl)-3,3-dimethyl-1-oxobutan-2-yl)-3-(2,5-difluorophenyl)-6,7,8,9-tetrahydro-5H-imidazo[1,5-a]azepine-1-carboxamide], the EC50 in assay [1] and in assay [2] was 0.1 to 10 nM in each case. On to `CNC(=O)[C@@H](NC(=O)c1nc(-c2ccccc2)n2c1CCOCC2)C(C)(C)C` [Compound 1-8, (S)—N-(3,3-dimethyl-1-(methylamino)-1-oxobutan-2-yl)-3-phenyl-5,6,8,9-tetrahydroimidazo[1,5-d][1,4]oxazepine-1-carboxamide], for which the half-maximal effective concentration (EC50) in assay [2] lay in the range of 10 to 100 nM. Regarding `CC[C@H](C)[C@H](NC(=O)c1nc(-c2ccc(F)c(F)c2)n2c1CCCCC2)C(N)=O` [Compound 1-14, N-((2S,3S)-1-amino-3-methyl-1-oxopentan-2-yl)-3-(3,4-difluorophenyl)-6,7,8,9-tetrahydro-5H-imidazo[1,5-a]azepine-1-carboxamide], the EC50 in assay [1] and in assay [2] was 0.1 to 10 nM in each case.

For `CC(C)(C)[C@H](NC(=O)c1nc(-c2ccccc2)n2c1CCCCC2)C(=O)N1CCC1` [Compound 1-4, (S)—N-(1-(azetidin-1-yl)-3,3-dimethyl-1-oxobutan-2-yl)-3-phenyl-6,7,8,9-tetrahydro-5H-imidazo[1,5-a]azepine-1-carboxamide], the EC50 in assay [1] lay in the range of 10 to 100 nM; in assay [2] it was 0.1 to 10 nM. As for `CC(C)(C)[C@@H](CO)NC(=O)c1nc(-c2ccc(F)c(F)c2)n2c1CCCCC2` [Compound 1-6, (S)-3-(3,4-difluorophenyl)-N-(1-hydroxy-3,3-dimethylbutan-2-yl)-6,7,8,9-tetrahydro-5H-imidazo[1,5-a]azepine-1-carboxamide], the EC50 in assay [2] was in the range of 0.1 to 10 nM. As for `O=C(N[C@@H]1c2ccccc2C[C@@H]1O)c1nc(-c2ccc(F)c(F)c2)n2c1CCCCC2` [Compound 1-16, 3-(3,4-difluorophenyl)-N-((1R,2S)-2-hydroxy-2,3-dihydro-1H-inden-1-yl)-6,7,8,9-tetrahydro-5H-imidazo[1,5-a]azepine-1-carboxamide], the half-maximal effective concentration (EC50) in assay [1] and in assay [2] was 10 to 100 nM in each case. Turning to `CC(C)(C)[C@H](NC(=O)c1nc(-c2ccccc2)n2c1CCCCC2)C(=O)NCCF` [Compound 1-22, (S)—N-(1-(2-fluoroethylamino)-3,3-dimethyl-1-oxobutan-2-yl)-3-phenyl-6,7,8,9-tetrahydro-5H-imidazo[1,5-a]azepine-1-carboxamide], the results for the EC50 in assay [1] and in assay [2] were 10 to 100 nM and 0.1 to 10 nM, respectively. Consider `COC(=O)[C@@H](NC(=O)c1nc(-c2ccc(F)c(F)c2)n2c1CCCCC2)C(C)(C)C` [Compound 1-23, (S)-methyl 2-(3-(3,4-difluorophenyl)-6,7,8,9-tetrahydro-5H-imidazo[1,5-a]azepine-1-carboxamido)-3,3-dimethylbutanoate], for which the EC50 in assay [1] and in assay [2] was 0.1 to 10 nM in each case.

As a reminder, the EC50 is the concentration at which the effect is half-maximal. High values mean a less potent agent, low ones a more potent agent.

The record behind these values is patent US8835422B2, “Substituted imidazoheterocycle derivatives” (Cara Therapeutics, Inc., priority 2008, dated 2014).
